Test results as given in article PMC9259545, “Impact of poly-arginine peptides R18D and R18 on alteplase and tenecteplase thrombolysis in vitro, and neuroprotective stability to proteolysis” (Journal of Thrombosis and Thrombolysis, 2022).
No end group written: not given here.

Tests used:
tPA [1] = molecular target: T1, tPA (Homo sapiens, UniProt P00750); test: Halo clot thrombolysis assay, tPA thrombolysis of whole blood clots; assay type: biochemical; settings: tPA 5 nM, 27.5% human plasma
T1 construct: purchased Boehringer Ingelheim, Germany 10 mg vial
Procedure: (§1) We utilised a high throughput 96-well plate thrombolysis assay (“halo clot assay”) based on the procedure developed by Bonnard et al.. To reduce assay components the halo thrombus formation procedure was modified by replacing the original thrombotic mixture consisting of recombinant tissue factor and synthetic phospholipids reconstituted in 30 mM calcium, with thrombin, and reducing the pro-thrombotic volume (i.e., thrombin) from 5 to 3 µL and blood volume from 25 to 12 µL. Another modification to simplify clot formation consisted of adding the thrombin (3 µL; 500 nM in saline) to one side of the well and 12 µL of blood to the opposite side of well, before using a heat stretched Pasteur pipette with sealed end to mix the two liquids together using 4 to 5 circular motions around the edge of the well (halo clot). The original methodology involved adding the 5 μL of the clotting mixture to the edge of the well, and then using a micropipette to slowly release the 25 μL of blood to the edge of the well while at the same time maintaining a circular motion. Plates were incubated in a humidified 37 °C incubator for 1 h before use in the thrombolysis assay.
(§2) The thrombolysis assay involved adding 30 µL of Tris buffer (50 mM Tris–HCl, 100 mM NaCl, pH 7.4) with or without peptide followed by 55 µL Tris buffer containing tPA or TNK (5 nM final concentration) and 50% human plasma (final plasma concentration during thrombolysis 27.5%). The final concentration of peptide during thrombolysis ranged from 0.25 to 16 µM (note: an intravenous dose of R18D at 350 nmol/kg, which is likely to be neuroprotective achieves a Cmax of 0.7–0.9 µM in healthy male and female rats; unpublished observation). […] Following the addition of tPA or TNK into the wells, clot lysis was monitored over a 1-h period at 37 °C using a plate reader (Cytation5, BioTek, USA) by measuring absorbance at 510 nm every 1 min immediately after orbital shaking (205 rpm for 5 s). Controls consisted of wells with no thrombin (100% clot lysis; L100%) and wells with no tPA or TNK (0% clot lysis; L0%). At the 1-h time point, the percentage of thrombolysis (%T) in tPA or TNK treated samples (LTX) was calculated by transforming absorbance values based on the formula: % T = (LTX) − (L0%)/(L100%) − (L0%) × 100. In addition, during the 1-h period of clot lysis lag time and maximal activity (also known as maximum velocity or Vmax) of the thrombolysis reaction were calculated. The lag time is defined as the time interval between the first absorbance reading (time = 0) and the line of maximum slope of the thrombolysis reaction. The maximal activity is calculated from the maximum slope over the time course of the assay and reflects the capacity of an enzyme to catalyse a reaction (i.e., thrombolysis), with higher values representing higher catalytic activity (i.e., tPA/TNK induced plasmin thrombolysis).
(§3) For each thrombolysis assay, replicates for control wells (L0% and L100%) and tPA or TNK only treated wells consisted of n = 4–8. Replicates for tPA or TNK and peptide treated wells consisted of n = 4. For data analysis and graphical representations of the results, data from three independent thrombolytic assays were pooled. Studies consisted of R18D, R18 and NA-1 examined at the 0.5, 1, 2, 4, 8 or 16 µM concentrations performed concurrently on the same 96-well plate, in respective order. In addition, since R18D is known to be resistant to plasmin degradation and appeared to have the most impact on tPA or TNK thrombolysis, a separate set of three independent assays were performed for this peptide alone at concentrations of 0.25, 0.5, 1, 2, 4, 8 or 16 µM. Furthermore, the second dose study with R18D provided the opportunity to include a lower concentration (0.25 µM) of the peptide and to provide comparative data when only one peptide was examined in the thrombolysis assay per 96-well plate as opposed to examining the three peptides concurrently on the same plate. […]

tPA [2] = molecular target: T1, tPA; test: Neuroprotective proteolytic stability after pre-incubation with tPA (glutamic acid excitotoxicity model, MTS); assay type: in vitro ADME; settings: 1 or 2 h or overnight (22-24 h)
Procedure: (§4) Neuronal cultures were maintained in CO2 incubator.
(§5) tPA (1000 µg/mL) or TNK (5000 µg/mL) resuspended in water (Baxter) were used to prepare 10 µg/mL (170 nM; note this is 34 times the concentration used in thrombolysis assay) stocks in MEM/2% B27 supplement (MEM/B27).
(§6) All data are presented as mean ± standard deviation (SD).

plasmin = settings: cited from earlier work
Description: Given the potential future application of the R18D, R18 and NA-1 peptides as ischaemic stroke neurotherapeutics, it is important to establish if they interfere with current and future standard of care treatments, namely alteplase (tPA; recombinant tissue plasminogen activator) and tenecteplase (TNK; a modified version of tPA) thrombolysis, which are routinely administered prior to thrombectomy. […] NA-1 is also degraded by plasmin [8]. Together, these findings confirm that peptides synthesised with D-enantiomer amino acids such as R18D, unlike peptides synthesised with L-enantiomer amino acids are highly resistant to proteolytic degradation and are likely to retain their neuroprotective efficacy ...

TNK [3] = molecular target: T2, TNK (Homo sapiens, UniProt P00750, H332A/K331A/N152Q/R333A/R334A/T138N); test: Neuroprotective proteolytic stability after pre-incubation with TNK (glutamic acid excitotoxicity model, MTS); assay type: in vitro ADME; settings: 1 or 2 h or overnight (22-24 h)
T2 construct: purchased Boehringer Ingelheim 50 mg vial
Procedure: as §4, §5, §6

tPA or TNK = assay type: biochemical, human
Procedure: as §1, §2
For each thrombolysis assay, replicates for control wells (L0% and L100%) and tPA or TNK only treated wells consisted of n = 4–8. Replicates for tPA or TNK and peptide treated wells consisted of n = 4. For data analysis and graphical representations of the results, data from three independent thrombolytic assays were pooled. Studies consisted of R18D, R18 and NA-1 examined at the 0.5, 1, 2, 4, 8 or 16 µM concentrations performed concurrently on the same 96-well plate, in respective order. […]

trypsin (TrypLE Express) = trypsin (TrypLE Express) (Fusarium oxysporum, UniProt P35049); settings: inferred from neuroprotection; peptide 2 µM, 50% TrypLE Express, 1 or 2 h or overnight (22-24 h)
Procedure: Rat primary cortical cultures were established from embryonic day 18–19 Sprague–Dawley rats (Animal Resources Centre, WA, Australia). Briefly, cortical tissue was dissociated in 2 mL Hanks balanced salt solution (HBBS; Life Technologies, Australia) supplemented with 1.3 mM L-cysteine, 10 U/mL papain (Sigma-Aldrich, Australia) and 50 U/mL DNase (Sigma-Aldrich) by trituration with a fire-polished pipette. Dissociated neurons were transferred to a 15-mL tube containing 13 mL of cold Dulbecco’s modified Eagle’s medium (DMEM; Life Technologies)/10% horse serum (Life Technologies) and centrifuged for 4 min at 300×g. Neurons were gently resuspended in 1.5 mL of cold Neurobasal (NB; Life Technologies)/2% B27 supplement (B27; Life Technologies) and the neuronal cell concentration adjusted to 50,000 neurons/70 μL and 70 μL inoculated into each well of a 96-well microtiter plate (Nunc, USA) pre-treated wells. Pre-treated wells were coated with 50 μL of poly-D-lysine (50 μg/mL; 70–150 K; Sigma-Aldrich) for 2–3 h at room temperature before being replaced with 50 μL of NB/B27, 4% fetal bovine serum (Life Technologies), 1% horse serum, 62.5 μM glutamic acid, 25 μM 2-mercaptoethanol, 30 μg/mL penicillin and 50 μg/mL streptomycin and placed in a CO2 incubator (5% CO2, 95% air balance, 98% humidity, 37 °C) prior to seeding with neurons. Neuronal cultures were maintained in CO2 incubator. On day in vitro four, 60 µL fresh NB/B27 containing the mitotic inhibitor cytosine arabinofuranoside (final concentration 0.15 μM; Sigma-Aldrich) was added and neuronal culture were used on day in vitro 11 to 13.
As an alternative to trypsin, TrypLE Express (Thermo Fischer Scientific, Australia) a synthetic serine protease with trypsin-like activity was used. […] Hereafter, TrypLE Express is referred to as trypsin.
Trypsin solution was added to an equal volume of MEM/2% B27 (T:MEM/B27). […] Following the incubation, 50 µL of the T:MEM/B27 or HBSS:MEM/B27 peptide solution was used to treat neuronal culture as described below for the glutamic acid excitotoxicity model. […]

TNK [4] = molecular target: T2, TNK; test: Halo clot thrombolysis assay, TNK thrombolysis of whole blood clots; assay type: biochemical; settings: concurrent study, TNK 5 nM, 27.5% human plasma
Procedure: as §1, §2, §3

tPA [5] = molecular target: T1, tPA; settings: cited from earlier work
Description: (§7) A potential mechanism that could negatively influence the neuroprotective efficacy of a peptide (and protein) neurotherapeutic when co-administered with a thrombolytic agent in ischaemic stroke is its proteolytic stability. For example, a peptide could be degraded directly by the proteolytic action of tPA and TNK, or indirectly by plasmin following its activation by tPA/TNK.

[6] = in the order; 8 (NA-1), unpublished data (R18D); cited from earlier work
Description: It is important to mention that the results obtained in this study are likely to overestimate any negative effects of R18D, R18 and NA-1 on tPA/TNK lag time and thrombolysis compared with what would occur clinically for several reasons. Firstly, positively charged peptides administered directly into the circulation would have a larger pool of negatively charged plasma proteins such as albumin to bind, and thus reduce any inhibitory electrostatic effects of the peptides on lag time and thrombolysis. In addition, the in vitro thrombolysis assay used in this study was performed in 27.5% plasma wh ...

[7] = human, in vivo, 0.5 mg/kg; cited from earlier work
Description: as §7

whole blood halo clot = test: Halo assay dose response study of tPA and TNK; assay type: biochemical, human; settings: 5 nM tPA or TNK, halo assay dose response study (Supplementary Fig. 1; assay performed without added plasma), N = 4
Procedure: We utilised a high throughput 96-well plate thrombolysis assay (“halo clot assay”) based on the procedure developed by Bonnard et al.. To reduce assay components the halo thrombus formation procedure was modified by replacing the original thrombotic mixture consisting of recombinant tissue factor and synthetic phospholipids reconstituted in 30 mM calcium, with thrombin, and reducing the pro-thrombotic volume (i.e., thrombin) from 5 to 3 µL and blood volume from 25 to 12 µL. […]
The thrombolysis assay involved adding 30 µL of Tris buffer (50 mM Tris–HCl, 100 mM NaCl, […] during thrombolysis 27.5%). […] Following the addition of tPA or TNK into the wells, clot lysis was monitored over a 1-h period at 37 °C using a plate reader (Cytation5, BioTek, USA) by measuring absorbance at 510 nm every 1 min immediately after orbital shaking (205 rpm for 5 s). […] At the 1-h time point, the percentage of thrombolysis (%T) in tPA or TNK treated samples (LTX) was calculated by transforming absorbance values based on the formula: % T = (LTX) − (L0%)/(L100%) − (L0%) × 100. In addition, during the 1-h period of clot lysis lag time and maximal activity (also known as maximum velocity or Vmax) of the thrombolysis reaction were calculated. The lag time is defined as the time interval between the first absorbance reading (time = 0) and the line of maximum slope of the thrombolysis reaction. […]

T1 sequence (P00750 36-562): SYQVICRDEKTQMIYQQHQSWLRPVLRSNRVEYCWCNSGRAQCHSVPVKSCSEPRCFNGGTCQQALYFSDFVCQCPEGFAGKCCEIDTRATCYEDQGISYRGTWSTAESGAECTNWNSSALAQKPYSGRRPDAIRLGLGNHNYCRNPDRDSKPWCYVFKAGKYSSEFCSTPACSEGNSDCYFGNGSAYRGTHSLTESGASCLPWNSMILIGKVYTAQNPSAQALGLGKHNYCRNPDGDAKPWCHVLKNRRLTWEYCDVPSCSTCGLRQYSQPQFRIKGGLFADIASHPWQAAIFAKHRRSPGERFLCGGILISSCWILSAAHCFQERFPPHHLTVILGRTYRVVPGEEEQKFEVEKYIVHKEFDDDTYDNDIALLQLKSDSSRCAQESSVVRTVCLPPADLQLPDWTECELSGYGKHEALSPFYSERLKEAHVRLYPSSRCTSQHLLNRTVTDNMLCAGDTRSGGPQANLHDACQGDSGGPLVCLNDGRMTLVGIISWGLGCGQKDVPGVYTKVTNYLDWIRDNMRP
T2 sequence (P00750 36-562 T138N/N152Q/K331A/H332A/R333A/R334A): as the sequence (P00750 36-562) above, with T103N, N117Q, K296A, H297A, R298A, R299A counted along it
trypsin (TrypLE Express), sequence (P35049 25-248): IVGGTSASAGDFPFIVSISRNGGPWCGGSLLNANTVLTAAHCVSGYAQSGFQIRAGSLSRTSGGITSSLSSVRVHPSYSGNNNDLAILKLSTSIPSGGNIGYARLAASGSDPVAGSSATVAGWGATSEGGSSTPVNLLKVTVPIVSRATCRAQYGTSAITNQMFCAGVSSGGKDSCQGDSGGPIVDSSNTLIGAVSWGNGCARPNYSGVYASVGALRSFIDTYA

| Substance | Effect on tPA lag time vs tPA control (tPA [1]; concurrent study, 0.5-16 µM peptide) | Increase in tPA thrombolysis maximal activity (tPA [1]; peptide 16 µM, concurrent study, 37 °C) | Effect on percentage tPA thrombolysis at 1 h vs tPA control (tPA [1]; three peptides concurrently on the same plate, 0.5-16 µM peptide, Tris pH 7.4, 37 °C, 1 h, absorbance 510 nm, three independent assays pooled, n = 4, Dunnett's test) | Resistance to degradation by tPA (tPA [2]; inferred from retained neuroprotection, peptide 2 µM, tPA 170 nM) | Neuroprotective efficacy after incubation with tPA (tPA [2]; peptide 2 µM in MEM/B27 with tPA 10 µg/mL (170 nM), 37 °C CO2 incubator, then rat cortical neurons, glutamic acid 100 µM 5 min, MTS viability at 20-24 h, N = 4-8) | Neuroprotective properties in the glutamic acid excitotoxicity injury model when pre-incubated with plasmin (plasmin) | Sensitivity to proteolytic degradation by plasmin (plasmin) | Resistance to degradation by TNK (TNK [3]; inferred from retained neuroprotection, peptide 2 µM, TNK 170 nM) | Neuroprotective efficacy after incubation with TNK (TNK [3]; peptide 2 µM in MEM/B27 with TNK 10 µg/mL (170 nM), 37 °C CO2 incubator, then rat cortical neurons, glutamic acid 100 µM 5 min, MTS viability at 20-24 h, N = 4-8) | Increase in lag time (time to the commencement of thrombolysis) (tPA or TNK; range over peptide concentrations 0.25-16 µM and both thrombolytics, 1-h assay) | Effect on maximal activity of the thrombolysis reaction (tPA or TNK; summary in abstract) | Resistance to degradation by trypsin (trypsin (TrypLE Express)) | Effect on TNK thrombolysis maximal activity vs TNK control (TNK [4]; 0.5-16 µM peptide) | Effect on percentage TNK thrombolysis at 1 h vs TNK control (TNK [4]; 0.5-16 µM peptide, 37 °C, 1 h) | Increase in TNK lag time (TNK [4]; peptide 8 µM, 37 °C) | Degradation when incubated with tPA (tPA [5]) | In vivo peak plasma concentration [6] | Plasma half-life [6] | Serum concentration [7] | Clot lysis after 1-h (whole blood halo clot) |
| --- | --- | --- | --- | --- | --- | --- | --- | --- | --- | --- | --- | --- | --- | --- | --- | --- | --- | --- | --- | --- |
| RRRRRRRRRRRRRRRRRR [R18] | did not significantly increase tPA lag time | 48.36% | did not significantly inhibit thrombolysis | resistant to degradation | a similar and a high level of neuroprotective efficacy | not | sensitive | resistant to degradation | a similar and a high level of neuroprotective efficacy | 0 to 5.53 min | appeared to increase the maximal activity | only R18D is resistant | did not significantly impact TNK thrombolysis maximal activity | did not significantly inhibit TNK thrombolysis | 5.53 min |  |  |  |  |  |
| YGRKKRRQRRRKLSSIESDV [NA-1, reference compound] |  |  |  |  |  |  | sensitive |  |  |  |  |  |  |  |  | is not degraded | 1 to 5 µM | 5 to 15 min |  |  |
| tPA: recombinant tissue plasminogen activator |  |  |  |  |  |  |  |  |  |  |  |  |  |  |  |  |  |  | ≤ 30 nM | approximately 90% |
